Assay results published in patent US10669284B2, “Fused thiazolopyrimidine derivatives as MNKS inhibitors” (LIFEARC, priority 2015, dated 2020).

Columns and labels:
[1] = molecular target: T1, Full-length human MNK1 (Homo sapiens, UniProt Q9BUB5, T385D); assay: MNK1 biochemical IC50 assay (Caliper Mobility Shift Assay); conditions: read-out: P(IC50) MNK1 (converted)
T1 construct: GST (N); purchased Carna Biosciences 02-145; host or cells: baculovirus expression system
Excerpt: (§1) The phosphorylated peptide product and unphosphorylated peptide substrate were detected using a Caliper Mobility Shift Assay using the Caliper LabChip EZ Reader II.
(§2) The Caliper Mobility Shift Assay technology is based on the utilisation of a microfluidic chip to measure the conversion of a fluorescent non-phosphorylated peptide substrate to phosphorylated product by electrophoresis separation of substrate and product and detection via Laser-induced fluorescence. The LabChip EZ Reader software calculates the relative heights of substrate and product peaks and reports the peak ratio (Product peak(P) divided by the sum of Product peak(P) and Substrate peak(S)). The percent-conversion is calculated as 100×[(P/(P+S)]. All assays were set up to run in the linear phase with a maximum of 10 percent substrate conversion.
(§3) These were N-terminal GST fusion proteins expressed in baculovirus expression system and purified by glutathione sepharose affinity chromatography. […] All other assay reagents were sourced from Sigma.
Compounds were serially diluted in DMSO to generate a 10-point half log dilution curve with a final top concentration of 100 uM in the assay. […] Compounds were pre-incubated with enzyme and peptide in reaction buffer for 30 mins prior to addition of ATP to initiate the reaction. Final assay concentrations were 3 nM MNK1, 2 uM peptide substrate, 50 uM ATP, 50 mM Hepes pH 7.0, 0.01% BSA, 10 mM MgCl2, 1 mM dithiothrietol.
(§4) The assay incubation times were adjusted depending on the concentration of ATP used. Assays were performed at low (50 uM) and high (1 mM) ATP. The low ATP values were selected to run at Km conditions for the standard assay to allow relative potencies to be compared across other kinases. The high ATP concentration was selected as representative of cellular ATP concentrations, and for an indication of ATP competition, where a significant shift (greater than half log) in apparent potency would be expected compared to Km conditions. All IC50 values reported are the average of at least two independent experiments.

[2] = molecular target: T2, Full-length human MNK2 (Homo sapiens, UniProt Q9HBH9, T379D); assay: MNK2 biochemical IC50 assay (Caliper Mobility Shift Assay); conditions: read-out: P(IC50) MNK2 (converted)
T2 construct: GST (N); purchased Carna Biosciences 02-146; host or cells: baculovirus expression system
Excerpt: as §1, §2, §3, §4
Reactions were performed as above using 10 nM MNK2 in the assay. Standard assays contained 50 uM ATP and high concentration ATP assays contained 1 mM ATP. […] All other conditions were the same.

[3] = test system: phosphorylation of eIF4E at ser209 in MV4.11 cell line; assay: MNK cellular activity phospho-eIF4E detection assay (Alphascreen Surefire); format: cell-based; conditions: Homo sapiens; MV4.11 cell line, phospho-eIF4E (ser209) Alphascreen Surefire; read-out: P(IC50) elF4E (converted)
Method: The assay detection is based on the formation of sandwich antibody complexes coupled to donor and acceptor beads. Excitation at 680 nm causes the transfer of a singlet oxygen species between donor and acceptor beads when they are in close proximity by binding to the analyte ([…]), which results in the emission of light at 520-620 nm.
Cells were then lysed and the Alphascreen Surefire protocol followed according to manufacturer's recommendations. 8 ul Acceptor beads (1:50 dilution in kit activation buffer) was added to lysate, shaken 150 rpm for 2 min and incubated for 1.5 hr at room temperature. 3 ul Donor beads (1:20 dilution in kit dilution buffer) were then added, shaken 150 rpm for 2 min and incubated for a further 1.5 hr at room temperature after which the plates were read on Pherastar FS using Alphascreen optic module.
Data were normalised relative to untreated DMSO only controls and curves repeated in duplicate within experiments. Data reported are averages of at least 2 independent experiments.

T1 sequence (Q9BUB5 1-424 isoform Q9BUB5-2 T344D): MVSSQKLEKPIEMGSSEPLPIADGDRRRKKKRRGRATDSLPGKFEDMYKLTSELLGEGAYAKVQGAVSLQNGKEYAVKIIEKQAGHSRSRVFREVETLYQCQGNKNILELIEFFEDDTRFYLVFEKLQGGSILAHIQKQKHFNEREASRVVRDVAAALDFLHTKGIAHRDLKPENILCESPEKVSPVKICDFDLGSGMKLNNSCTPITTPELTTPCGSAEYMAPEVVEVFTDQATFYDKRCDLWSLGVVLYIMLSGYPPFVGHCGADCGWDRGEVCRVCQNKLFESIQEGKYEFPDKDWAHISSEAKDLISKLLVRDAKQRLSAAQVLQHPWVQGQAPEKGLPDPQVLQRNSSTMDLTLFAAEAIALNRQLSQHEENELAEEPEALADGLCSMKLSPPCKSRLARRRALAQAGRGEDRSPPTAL
T2 sequence (Q9HBH9 whole entry T379D): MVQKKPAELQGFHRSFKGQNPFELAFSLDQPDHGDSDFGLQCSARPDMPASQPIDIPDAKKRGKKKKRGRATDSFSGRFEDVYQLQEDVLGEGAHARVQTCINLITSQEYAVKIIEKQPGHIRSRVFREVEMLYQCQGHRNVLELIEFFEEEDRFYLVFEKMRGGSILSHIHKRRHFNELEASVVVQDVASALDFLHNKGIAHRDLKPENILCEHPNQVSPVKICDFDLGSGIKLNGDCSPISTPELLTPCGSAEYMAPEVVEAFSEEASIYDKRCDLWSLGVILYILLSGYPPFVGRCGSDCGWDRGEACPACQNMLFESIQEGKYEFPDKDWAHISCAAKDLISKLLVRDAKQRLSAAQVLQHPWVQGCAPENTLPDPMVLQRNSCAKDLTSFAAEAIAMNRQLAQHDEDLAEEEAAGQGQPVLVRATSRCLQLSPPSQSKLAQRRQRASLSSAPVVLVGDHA

Structure (SMILES)	IC50 [1] [µM]	IC50 [2] [µM]	IC50 [3] [µM]
C[C@H]1Cc2ccccc2N1c1ncnc2sc(C(=O)NC3CCOCC3)nc12 [Example 133, 7-[(2S)-2-methylindolin-1-yl]-N-tetrahydropyran-4-yl-thiazolo[5,4-d]pyrimidine-2-carboxamide]	0.0794	0.0398	0.0501
CNC(=O)c1nc2c(N3CC(CCO)c4ccccc43)ncnc2s1 (stereo not drawn) [Example 157]	0.0316	0.02	0.01
CC(C)Oc1cc(F)ccc1Nc1ncnc2sc(C(=O)NCCCN3CCCC3)nc12 [Example 13, 7-(4-fluoro-2-isopropoxy-anilino)-N-(3-pyrrolidin-1-ylpropyl)thiazolo[5,4-d]pyrimidine-2-carboxamide]	0.0501	0.0398	0.0398
CN1CCN(CCC2CN(c3ncnc4sc(C(=O)NC5CCOCC5)nc34)c3ccccc32)CC1 (stereo not drawn) [Example 155, 7-[3-[2-(4-methylpiperazin-1-yl)ethyl]indolin-1-yl]-N-tetrahydropyran-4-yl-thiazolo[5,4-d]pyrimidine-2-carboxamide]	0.126	0.0794	0.0501
CC(=O)Nc1ccc2c(c1)CCN2c1ncnc2sc(C(=O)NC3CCN(C)CC3)nc12 [Example 46, 7-[5-(Acetylamino)-2,3-dihydro-1H-indol-1-yl]-N-(1-methylpiperidin-4-yl)[1,3]thiazolo[5,4-d]pyrimidine-2-carboxamide]	0.501	0.2	0.1
CC(C)Oc1c(F)cccc1Nc1ncnc2sc(C(=O)NCCCN(C)C)nc12 [Example 18, N-[3-(dimethylamino)propyl]-7-(3-fluoro-2-isopropoxy-anilino)thiazolo[5,4-d]pyrimidine-2-carboxamide]	0.0501	0.0501	0.0398
CO[C@@H]1CCCC[C@H]1Oc1cc(F)ccc1Nc1ncnc2sc(C(=O)NCCCN(C)C)nc12 [Example 20, N-[3-(dimethylamino)propyl]-7-[4-fluoro-2-[(1R,2R)-2-methoxycyclohexoxy]anilino]thiazolo[5,4-d]pyrimidine-2-carboxamide]	0.794	0.398	0.316
O=C(NC1COC1)c1nc2c(N3CCc4cc(F)ccc43)ncnc2s1 [Example 76, 7-(5-fluoroindolin-1-yl)-N-(oxetan-3-yl)thiazolo[5,4-d]pyrimidine-2-carboxamide]	0.00631	0.00316	0.00794
CN(C)CCCNC(=O)c1nc2c(Nc3ccc(F)cc3O[C@@H]3CCCOC3)ncnc2s1 [Example 16, N-[3-(dimethylamino)propyl]-7-[4-fluoro-2-[(3R)-tetrahydropyran-3-yl]oxy-anilino]thiazolo[5,4-d]pyrimidine-2-carboxamide]	0.1	0.1	0.158
CNCCNC(=O)c1nc2c(Nc3ccc(F)cc3OC(C)C)ncnc2s1 [Example 30, 7-{[4-Fluoro-2-(propan-2-yloxy)phenyl]amino}-N-[2-(methylamino)ethyl][1,3]thiazolo[5,4-d]pyrimidine-2-carboxamide]	0.2	0.126	0.1
CN(C)CCCNc1nc2c(N3CCc4cc(F)ccc43)ncnc2s1 [Example 85, N1-(7-(5-fluoroindolin-1-yl)thiazolo[5,4-d]pyrimidin-2-yl)-N3,N3-dimethylpropane-1,3-diamine]	0.01	0.02	0.1
COCCCNC(=O)c1nc2c(N3CC(CCN)c4ccccc43)ncnc2s1 (stereo not drawn) [Example 166, 7-[3-(2-amino-ethyl)indolin-1-yl]-N-(3-methoxypropyl) thiazolo[5,4-d]pyrimidine-2-carboxamide]	0.00501	0.00501	0.00398
CN(C)CCCNC(=O)c1nc2c(Nc3ccc(F)cc3O[C@H]3CCCOC3)ncnc2s1 [Example 17, N-[3-(dimethylamino)propyl]-7-[4-fluoro-2-[(3S)-tetrahydropyran-3-yl]oxy-anilino]thiazolo[5,4-d]pyrimidine-2-carboxamide]	0.126	0.1	0.1
NCCC1CN(c2ncnc3sc(C(=O)NC4CCOCC4)nc23)c2ccccc21 (stereo not drawn) [Example 111, 7-[3-(2-aminoethyl)indolin-1-yl]-N-tetrahydropyran-4-yl-thiazolo[5,4-d]pyrimidine-2-carboxamide]	0.00501	0.00631	0.0631
CNCCC1CN(c2ncnc3sc(C(=O)NC4CCOCC4)nc23)c2ccc(F)cc21 (stereo not drawn) [Example 147, 7-[5-fluoro-3-[2-(methyl-amino)ethyl]indolin-1-yl]-N-tetrahydropyran-4-yl-thiazolo[5,4-d]pyrimidine-2-carboxamide]	0.00794	0.01	0.0158
O=C(NCCN1CCNCC1)c1nc2c(N3CCc4cc(F)ccc43)ncnc2s1 [Example 79, 7-(5-fluoroindolin-1-yl)-N-(2-piperazin-1-ylethyl)thiazolo[5,4-d]pyrimidine-2-carboxamide]	0.00316	0.00316	0.01
O=C(NCC1CCNCC1)c1nc2c(N3CCc4cc(C(F)(F)F)ccc43)ncnc2s1 [Example 145]	0.126	0.1	0.501
CC1Cc2ccccc2N1c1ncnc2sc(C(=O)NCCCN(C)C)nc12 (stereo not drawn) [Example 124]	0.0251	0.02	0.0316
N#Cc1ccc2c(c1)CCN2c1ncnc2sc(C(=O)NC3CCOCC3)nc12 [Example 42, 7-(5-cyano-2,3-dihydro-1H-indol-1-yl)-N-(tetrahydro-2H-pyran-4-yl)[1,3]thiazolo[5,4-d]pyrimidine-2-carboxamide]	0.0316	0.02	0.0316
CN(C)C(=O)c1nc2c(N3CCc4cc(F)ccc43)ncnc2s1 [Example 70, 7-(5-fluoroindolin-1-yl)-N,N-dimethyl-thiazolo[5,4-d]pyrimidine-2-carboxamide]	0.0501	0.02	0.0631
CC(C)(O)CC1CN(c2ncnc3sc(C(=O)NCC4CCNCC4)nc23)c2ccccc21 (stereo not drawn) [Example 142]	0.0158	0.0158	0.01
CN(C)CCCOc1nc2c(N3CCc4cc(F)ccc43)ncnc2s1 [Example 89, 3-((7-(5-Fluoroindolin-1-yl)thiazolo[5,4-d]pyrimidin-2-yl)oxy)-N,N-dimethylpropan-1-amine]	0.0398	0.0631	0.2
CNCCCNC(=O)c1nc2c(Nc3ccc(F)cc3OC(C)C)ncnc2s1 [Example 29, 7-{[4-Fluoro-2-(propan-2-yloxy)phenyl]amino}-N-[3-(methylamino)propyl][1,3]thiazolo[5,4-d]pyrimidine-2-carboxamide]	0.0631	0.0501	0.0398
CN(C)CCC1CN(c2ncnc3sc(C(=O)NC4CCOCC4)nc23)c2ccccc21 (stereo not drawn) [Example 152, 7-[3-[2-(dimethylamino)ethyl]-indolin-1-yl]-N-tetrahydropyran-4-yl-thiazolo[5,4-d]pyrimidine-2-carboxamide]	0.1	0.0794	0.0501
